Test results: patent publication US20040043918A1, “Apoptosis inducers, caspase cascade activators and anticancer agent” (KIMIGAFUCHI GAKUEN, priority 2000, published 2004)
Values belong to the compound of their own block, whether it stands above or below them.

What was measured:
Assay type in all cases: cell-based
[1] = test system: human promyelocytes of leukemia (HL-60); assay: Procaspase-3 catabolic enzyme inhibition experiment using a flow cytometer; settings: inhibitor preincubated, then DMPC liposome solution, FIG. 4
[2] = test system: human promyelocytes of leukemia (HL-60); assay: Caspase-1,4 inhibition experiment using a flow cytometer; settings: inhibitor preincubated, then DMPC liposome solution, FIG. 5
[3] = test system: human promyelocytes of leukemia (HL-60); assay: Caspase-9 inhibition experiment using a flow cytometer (DNA fragmentation, PI dyeing)
Experimental: The following experiment was performed using the reagents prepared in section 1-1. First of all, multiple samples were prepared in stages wherein 0 to 120 μl of caspase-9 inhibitor was added to 12 ml of a suspension ([…]) of human promyelocytes of leukemia (HL-60, purchased from Riken Cell Bank). Then, the mixture were incubated for 90 minutes, 2 ml of liposome solution comprising dimyristoyl phosphatidylcholine was each added to the samples. Subsequently, each of the samples were incubated for three hours. After washing each sample with 2 ml of −PBS, 5 ml of 70% ethanol was added to each sample, and each sample was left at freezing temperature for one hour so as to be subjected to tissue-fixing. Furthermore, following washing each sample with 2 ml of −PSB, 6 ml of RNase solution was added to each sample, and subsequently, each sample was incubated for 30 minutes. Next, following adding 670 μl of PI solution, each sample was shielded from light with aluminum foil, and was left in a dark place at freezing temperature for 30 minutes, and was subjected to PI dyeing. After PI dyeing, each sample was subjected to centrifugal separation at 2000 rpm for five minutes. After removal of supernatant, and the precipitation formed was suspended in 500 μl of −PBS so as to measure DNA content using a flow cytometer (product name, COULTER EPICS-XL). Inhibition effects were evaluated by the ratios of the DNA fragmentation percentage of the control (wherein no caspase-9 inhibitor was added, and only a liposome solution comprising dimyristoyl phosphatidylcholine was added) to the DNA fragmentation percentages of the samples wherein caspase-9 inhibitor was added in stages.

[4] = control without caspase-9 inhibitor, only DMPC liposome solution, three hours

Compound: Ac—L-Ile-L-Glu-L-Thr-L-Asp-H [procaspase-3 catabolic enzyme inhibitor]
DNA fragmentation percentage with procaspase-3 catabolic enzyme inhibitor added in stages [1]: decreased approximately depending upon the concentration

Compound: Ac—L-Tyr-L-Val-L-Ala-L-Asp-H [caspase-1,4 inhibitor]
DNA fragmentation percentage with caspase-1,4 inhibitor added in stages [2]: decreased approximately depending upon the concentration

Compound: Ac—L-Leu-L-Glu-L-His-L-Asp-H [caspase-9 inhibitor]
DNA fragmentation percentage with caspase-9 inhibitor added in stages ([3]; 0 to 120 μl inhibitor preincubated 90 minutes, then DMPC liposome solution for three hours, FIG. 3): decreased approximately depending upon the concentration

DNA fragmentation of human promyelocytes of leukemia [3, 4]: clearly observed
Compound: CCCCCCCCCCCCCC(=O)OC[C@H](COP(=O)([O-])OCC[N+](C)(C)C)OC(=O)CCCCCCCCCCCCC [dimyristoyl phosphatidylcholine, 1,2-dimyristoyl-sn-glycero-3-phosphocholine]
apoptosis induction [3, 4]: apoptosis was induced
